# Test results: ChEMBL document CHEMBL1126531, “Synthesis of N-Acetylhemiaminal metabolites of opc-21268, vasopressin V1 receptor antagonist” (Bioorg Med Chem Lett, 1993)
# Biological target: Vasopressin V1 receptor (Homo sapiens, UniProt P37288+P47901)
# Assay: Compound was evaluated for antagonistic activity against vasopressin V1 receptor
# Format: functional
row,SMILES,IC50 [nM]
1,CC(=O)NCCCOc1ccc(C(=O)N2CCC(N3C(=O)CCc4ccccc43)CC2)cc1,440
2,CC(=O)NC(O)CCOc1ccc(C(=O)N2CCC(N3C(=O)CCc4ccccc43)CC2)cc1 (stereo not drawn),600
3,CC(=O)NC(O)CCOc1ccc(C(=O)N2CCC(n3c(=O)ccc4ccccc43)CC2)cc1 (stereo not drawn),3300
